Source: ChEMBL document CHEMBL3751727, “One-pot green synthesis of 1,3,5-triarylpentane-1,5-dione and triarylmethane derivatives as a new class of tyrosinase inhibitors” (Bioorg Med Chem Lett, 2016)

Key:
[1] = molecular target: T1, Tyrosinase (Agaricus bisporus, UniProt O42713)
T1 sequence (O42713 whole entry): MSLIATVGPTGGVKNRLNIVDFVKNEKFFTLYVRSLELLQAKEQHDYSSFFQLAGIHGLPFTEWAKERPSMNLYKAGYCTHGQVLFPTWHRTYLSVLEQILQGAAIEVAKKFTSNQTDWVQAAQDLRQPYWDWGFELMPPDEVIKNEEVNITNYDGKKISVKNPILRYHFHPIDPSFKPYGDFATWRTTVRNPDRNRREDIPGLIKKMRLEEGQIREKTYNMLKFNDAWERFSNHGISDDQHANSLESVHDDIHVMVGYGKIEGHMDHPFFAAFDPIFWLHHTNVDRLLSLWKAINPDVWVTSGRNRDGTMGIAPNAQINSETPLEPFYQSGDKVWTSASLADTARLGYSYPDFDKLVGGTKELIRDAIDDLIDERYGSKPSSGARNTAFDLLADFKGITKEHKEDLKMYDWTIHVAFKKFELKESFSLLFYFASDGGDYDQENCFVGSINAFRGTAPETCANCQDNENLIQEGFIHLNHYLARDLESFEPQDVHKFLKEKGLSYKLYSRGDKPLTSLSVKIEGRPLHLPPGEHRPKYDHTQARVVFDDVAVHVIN
Description: Inhibition of mushroom tyrosinase using L-tyrosine as substrate after 20 mins by spectrophotometric method

[2] = molecular target: T2, Tyrosinase (Agaricus bisporus) (UniProt O42713); experiment: Ratio of kojic acid IC50 to compound IC50 for mushroom tyrosinase
T2 sequence (whole entry): T1 sequence (O42713 whole entry)

| SMILES | IC50 [1] [nM] | Ratio IC50 [2] |
| --- | --- | --- |
| CC(=O)c1c(O)ccc(C(c2ccc(O)cc2O)c2ccc(O)c(C(C)=O)c2O)c1O | 16200 |  |
| CC(=O)c1ccccc1O | > 300000 |  |
| O=c1cc(-c2ccc(O)cc2O)oc2cccc(O)c12 | 2720 |  |
| O=C1CC(c2ccc(O)cc2O)Oc2ccccc21 (stereo unspecified) | 970 | 30 |
| O=Cc1ccc(O)cc1O | > 200000 |  |
| O=C1CC(c2ccc(O)cc2O)Oc2cccc(O)c21 (stereo unspecified) | 1960 |  |
| O=C(/C=C/c1ccc(O)cc1O)c1ccccc1O | 29 | 30 |
| O=C(CC(CC(=O)c1ccccc1O)c1ccc(O)cc1O)c1ccccc1O | 1670 |  |
| CC(=O)c1c(O)cccc1O | > 300000 |  |
